Experimental data published in PMC10539329, “NLRP6 potentiates PI3K/AKT signalling by promoting autophagic degradation of p85α to drive tumorigenesis” (Nature Communications, 2023).

What was measured:
purified NLRP6 = assay: ELISA, binding of HRP-conjugated peptide to purified NLRP6; conditions: HRP-conjugated peptide on NLRP6, 1 h, absorbance 450 nm
Experimental: DNA encoding full-length NLRP6 was codon optimized and chemically synthesized by Genewiz (Soochow, China). The DNA sequence was subcloned into NdeI-XhoI sites of a pDB-His-MBP vector (kindly given by Pro. Chenggui Han, China Agricultural University, Beijing, China). Recombinant NLRP6 protein was expressed and purified following previous reports, with slight modifications. Briefly, the protein was expressed in E. coli (DE3) at 16 °C with 0.5 mM IPTG induction overnight. Then, the protein was purified by Ni affinity and gel filtration chromatography. The p85α WT and p85α mutant sequences were chemically synthesized and subcloned into BamHI-XhoI sites of a pGEX-6P-1 plasmid by GenScript (Nanjing, China). The E. coli (DE3) transformed with the plasmids were grown in LB medium at 37 °C. The culture medium was supplemented with 0.5 mM IPTG followed by incubation at 16 °C for 16–18 h. The proteins were purified by glutathione-affinity chromatography (Smart-Life Sciences, Changzhou, China) followed by gel filtration chromatography (Cytiva, MA, USA) using PBS. The protein extinction coefficient was calculated by ProtParam, and the protein concentration was determined by the ultraviolet spectrophotometry method.
The 96-well plate was coated with bovine serum albumin (BSA) or purified NLRP6. HRP-conjugated PepC or HRP-conjugated Pep9 was incubated with BSA or NLRP6 for 1 h, and the unbound peptide was washed away. The HRP substrate was added, and the absorbance was detected at 450 nm. For the competitive ELISA, the 96-well plate was coated with purified p85α. The binding of NLRP6 to p85α competed with 10 μM PepC or 5 μM, 10 μM, 20 μM Pep9 for 1 h.

HS683 cells = assay: Cell proliferation / viability assay, HS683; type: cell-based, Human; conditions: Supplementary Figure 8f
Experimental: (§1) Cells were seeded into 12-well plates at a density of 1 × 10^4 cells per well. Manual cell counting was carried out at the indicated times using trypan blue and a haemocytometer.
(§2) To determine the antitumour effect of the peptide in vitro, the peptide was incubated with cells for 24 h when the cells were grown to approximately 80% confluence. Cell viability was measured at the indicated time points. The cell lysates were collected for immunoprecipitation as described above. To determine the antitumour effect of the peptide in vivo, the peptide was stereotactically injected using identical coordinates of tumour implantation in 3 μl of PBS. Briefly, 3 weeks after intracranial tumour cell implantation, mice with similar tumour sizes and similar weights were selected and randomly arranged into five groups (n = 6): PBS, PepC (0.25 mg/kg TAT-PepC per injection), Pep9 low dose (Pep9 L, 0.05 mg/kg TAT-Pep9 per injection), Pep9 medium dose (Pep9 M, 0.1 mg/kg TAT-Pep9 per injection), and Pep9 high dose (Pep9 H, 0.25 mg/kg TAT-Pep9 per injection). Each mouse received intratumoural injection every 10 days (at Day 21, Day 31, Day 41, and Day 51), and tumour growth was monitored at Day 21, Day 41, and Day 56. The experiment was terminated at Day 80, and all the mice (if they were alive) were sacrificed as previously described.

U251 cells = assay: Cell proliferation / viability assay, U251 (PTEN deficient); type: cell-based, Human; conditions: Supplementary Figure 8i
Experimental: as §1, §2

Sequence: SAEGYQYRALYD [Pep1, peptide found on the p85α SH3 domain; selected as the control named PepC]
- ELISA value (purified NLRP6; replicate 1): 0.12
- ELISA value (purified NLRP6; replicate 2): 0.10
- ELISA value (purified NLRP6; replicate 3): 0.06
- Relative cell viability (HS683 cells; 5 μM, replicate 1): 0.98
- Relative cell viability (HS683 cells; 5 μM, replicate 2): 0.96
- Relative cell viability (HS683 cells; 5 μM, replicate 3): 0.94
- Relative cell viability (HS683 cells; 10 μM, replicate 1): 0.96
- Relative cell viability (HS683 cells; 10 μM, replicate 2): 0.95
- Relative cell viability (HS683 cells; 10 μM, replicate 3): 0.91
- Relative cell viability (HS683 cells; 20 μM, replicate 1): 0.94
- Relative cell viability (HS683 cells; 20 μM, replicate 2): 0.90
- Relative cell viability (HS683 cells; 20 μM, replicate 3): 0.89
- Relative cell viability (HS683 cells; 30 μM, replicate 1): 0.92
- Relative cell viability (HS683 cells; 30 μM, replicate 2): 0.88
- Relative cell viability (HS683 cells; 30 μM, replicate 3): 0.85
- Relative cell viability (U251 cells; 5 μM, replicate 1): 1.01
- Relative cell viability (U251 cells; 5 μM, replicate 2): 1.04
- Relative cell viability (U251 cells; 5 μM, replicate 3): 0.94
- Relative cell viability (U251 cells; 10 μM, replicate 1): 0.88
- Relative cell viability (U251 cells; 10 μM, replicate 2): 0.87
- Relative cell viability (U251 cells; 10 μM, replicate 3): 0.79
- Relative cell viability (U251 cells; 20 μM, replicate 1): 0.99
- Relative cell viability (U251 cells; 20 μM, replicate 2): 1.04
- Relative cell viability (U251 cells; 20 μM, replicate 3): 0.91
- Relative cell viability (U251 cells; 30 μM, replicate 1): 1.05
- Relative cell viability (U251 cells; 30 μM, replicate 2): 0.89
- Relative cell viability (U251 cells; 30 μM, replicate 3): 0.98
